± gives the standard deviation of the averaged measurements.
Key:
VORINOSTAT = compound: O=C(CCCCCCC(=O)Nc1ccccc1)NO [VORINOSTAT]; test: surviving fraction relative to DMSO-only wells; higher = less growth inhibition; settings: exposure time: 5 days
Outline: (§1)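 Log-phase tumour cell lines were seeded at 250–500 cells per well in 384-well plates. After 24 hours they were exposed continuously for five days to inhibitors at 0.5, 1, 5, 10, 50, 100, 500 and 1000 nM. Viability was read by CellTiter-Glo luminescence after 10 minutes at room temperature, and surviving fraction is luminescence normalised to the median of DMSO-only wells. Each line was screened three times and kept only if replicate Pearson r >0.7 and median Z' >0.3.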

BEZ-235 = compound: Cn1c(=O)n(-c2ccc(C(C)(C)C#N)cc2)c2c3cc(-c4cnc5ccccc5c4)ccc3ncc21 [BEZ-235]; test: as above; settings: exposure time: 5 days
Outline: as §1

Test System | surviving fraction (VORINOSTAT; 0.5 nM) | surviving fraction (VORINOSTAT; 1 nM) | surviving fraction (VORINOSTAT; 5 nM) | surviving fraction (VORINOSTAT; 10 nM) | surviving fraction (VORINOSTAT; 50 nM) | surviving fraction (VORINOSTAT; 100 nM) | surviving fraction (VORINOSTAT; 500 nM) | surviving fraction (VORINOSTAT; 1000 nM) | surviving fraction (BEZ-235; 0.5 nM) | surviving fraction (BEZ-235; 1 nM) | surviving fraction (BEZ-235; 5 nM) | surviving fraction (BEZ-235; 10 nM) | surviving fraction (BEZ-235; 50 nM) | surviving fraction (BEZ-235; 100 nM) | surviving fraction (BEZ-235; 500 nM) | surviving fraction (BEZ-235; 1000 nM)
OSHN BONE | 1.05 ± 0.026 | 1.04 ± 0.019 | 1.05 ± 0.022 | 1.028 ± 0.0032 | 1.08 ± 0.042 | 1.08 ± 0.032 | 1.1 ± 0.022 | 0.903 ± 0.022 | 1.07 ± 0.033 | 1.09 ± 0.044 | 1.06 ± 0.029 | 1.08 ± 0.03 | 1.12 ± 0.013 | 1.12 ± 0.026 | 0.828 ± 0.02 | 0.623 ± 0.0072
SYO1 SYNOVIAL | 0.942 ± 0.068 | 0.895 ± 0.083 | 0.945 ± 0.055 | 0.836 ± 0.025 | 1.03 ± 0.088 | 1.057 ± 0.0096 | 0.563 ± 0.022 | 0.222 ± 0.012 | 1.02 ± 0.036 | 0.973 ± 0.054 | 0.942 ± 0.065 | 0.96 ± 0.023 | 0.705 ± 0.04 | 0.457 ± 0.017 | 0.196 ± 0.011 | 0.117 ± 0.0081
OS25HAL BONE | 0.987 ± 0.014 | 0.962 ± 0.015 | 0.991 ± 0.015 | 0.943 ± 0.033 | 1.046 ± 0.0047 | 1.03 ± 0.031 | 0.91 ± 0.011 | 0.498 ± 0.018 | 0.995 ± 0.017 | 1.01 ± 0.035 | 0.974 ± 0.031 | 0.965 ± 0.025 | 0.94 ± 0.045 | 0.788 ± 0.04 | 0.25 ± 0.0061 | 0.196 ± 0.018
SG31 HEADNECK | 1.07 ± 0.21 | 1.05 ± 0.27 | 1.02 ± 0.078 | 1.01 ± 0.18 | 1.08 ± 0.12 | 1.04 ± 0.042 | 0.948 ± 0.14 | 0.63 ± 0.027 | 1.1 ± 0.15 | 1.138 ± 0.0095 | 0.946 ± 0.091 | 1.02 ± 0.15 | 0.602 ± 0.088 | 0.569 ± 0.042 | 0.354 ± 0.029 | 0.289 ± 0.028
NCIH441 LUNG | 1.12 ± 0.041 | 1.02 ± 0.089 | 1.06 ± 0.033 | 1.04 ± 0.038 | 1.14 ± 0.02 | 0.959 ± 0.086 | 0.939 ± 0.024 | 0.546 ± 0.045 | 1.16 ± 0.081 | 1.11 ± 0.1 | 1.1 ± 0.027 | 1.11 ± 0.11 | 1.21 ± 0.064 | 0.997 ± 0.1 | 0.527 ± 0.027 | 0.356 ± 0.061
HOS BONE | 0.957 ± 0.017 | 1 ± 0.022 | 0.9643 ± 0.0076 | 0.989 ± 0.017 | 1.05 ± 0.019 | 1.07 ± 0.029 | 0.948 ± 0.034 | 0.967 ± 0.021 | 1.02 ± 0.034 | 1.05 ± 0.036 | 1.02 ± 0.014 | 1.01 ± 0.018 | 0.763 ± 0.034 | 0.591 ± 0.017 | 0.317 ± 0.015 | 0.285 ± 0.015
SAOS2 BONE | 1.09 ± 0.027 | 1.07 ± 0.047 | 1.09 ± 0.07 | 0.997 ± 0.088 | 1.24 ± 0.021 | 1.06 ± 0.048 | 0.91 ± 0.053 | 0.73 ± 0.017 | 1.18 ± 0.055 | 1.12 ± 0.043 | 1.171 ± 0.01 | 1.23 ± 0.1 | 1.08 ± 0.045 | 0.874 ± 0.0098 | 0.433 ± 0.039 | 0.36 ± 0.014
DU4475 BREAST | 1.41 ± 0.74 | 1.08 ± 0.76 | 1.05 ± 0.56 | 1.25 ± 0.66 | 1.07 ± 0.57 | 0.952 ± 0.38 | 0.627 ± 0.22 | 0.431 ± 0.17 | 0.914 ± 0.16 | 1.05 ± 0.13 | 0.919 ± 0.16 | 0.835 ± 0.1 | 0.525 ± 0.064 | 0.194 ± 0.018 | 0.0427 ± 0.0085 | 0.035 ± 0.0035
CAL120 BREAST | 0.944 ± 0.017 | 0.896 ± 0.025 | 0.922 ± 0.013 | 0.883 ± 0.036 | 0.896 ± 0.025 | 0.78 ± 0.009 | 0.4962 ± 0.0023 | 0.248 ± 0.054 | 0.962 ± 0.022 | 0.9768 ± 0.0038 | 0.98 ± 0.011 | 0.911 ± 0.017 | 0.502 ± 0.029 | 0.296 ± 0.0058 | 0.102 ± 0.0053 | 0.0963 ± 0.0037
MDAMB157 BREAST | 0.889 ± 0.089 | 0.896 ± 0.034 | 0.939 ± 0.04 | 0.973 ± 0.069 | 1.01 ± 0.065 | 0.951 ± 0.068 | 0.825 ± 0.024 | 0.321 ± 0.04 | 0.983 ± 0.056 | 0.974 ± 0.1 | 0.936 ± 0.12 | 1.02 ± 0.11 | 0.825 ± 0.094 | 0.752 ± 0.081 | 0.454 ± 0.06 | 0.381 ± 0.008
SG43 HEADNECK | 1.08 ± 0.16 | 1.13 ± 0.12 | 0.836 ± 0.23 | 1.03 ± 0.21 | 0.949 ± 0.15 | 1.1 ± 0.033 | 1.04 ± 0.28 | 0.729 ± 0.21 | 0.984 ± 0.18 | 1.23 ± 0.35 | 0.946 ± 0.1 | 0.956 ± 0.048 | 0.763 ± 0.12 | 0.77 ± 0.11 | 0.555 ± 0.037 | 0.36 ± 0.036
MDAMB231 BREAST | 0.995 ± 0.015 | 1 ± 0.017 | 0.993 ± 0.03 | 0.983 ± 0.025 | 1.01 ± 0.028 | 0.971 ± 0.042 | 0.805 ± 0.02 | 0.358 ± 0.0067 | 1.01 ± 0.026 | 1.02 ± 0.034 | 1.01 ± 0.032 | 0.959 ± 0.037 | 0.574 ± 0.016 | 0.437 ± 0.019 | 0.231 ± 0.0068 | 0.227 ± 0.013
BT549 BREAST | 1.12 ± 0.083 | 1.14 ± 0.11 | 1.15 ± 0.029 | 1.22 ± 0.051 | 1.12 ± 0.17 | 1.11 ± 0.068 | 0.773 ± 0.073 | 0.534 ± 0.034 | 1.06 ± 0.11 | 1.03 ± 0.032 | 1.03 ± 0.02 | 0.763 ± 0.22 | 0.699 ± 0.016 | 0.244 ± 0.073 | 0.136 ± 0.017 | 0.247 ± 0.29
VP229 BREAST | 0.931 ± 0.099 | 1.04 ± 0.054 | 1.02 ± 0.11 | 0.924 ± 0.033 | 1.1 ± 0.086 | 1.04 ± 0.022 | 0.6 ± 0.11 | 0.352 ± 0.058 | 1.36 ± 0.32 | 1.22 ± 0.075 | 1.25 ± 0.089 | 1.04 ± 0.035 | 0.969 ± 0.094 | 0.751 ± 0.025 | 0.268 ± 0.008 | 0.159 ± 0.008
CASKI CERVIX | 0.88 ± 0.024 | 0.942 ± 0.062 | 0.957 ± 0.013 | 0.903 ± 0.029 | 0.971 ± 0.046 | 0.955 ± 0.034 | 0.496 ± 0.02 | 0.448 ± 0.027 | 0.872 ± 0.028 | 0.922 ± 0.016 | 0.896 ± 0.065 | 0.882 ± 0.081 | 0.452 ± 0.021 | 0.292 ± 0.0061 | 0.127 ± 0.0064 | 0.096 ± 0.0036
BT20 BREAST | 1.05 ± 0.17 | 1.09 ± 0.21 | 1.06 ± 0.17 | 1.05 ± 0.2 | 0.941 ± 0.21 | 0.943 ± 0.22 | 0.872 ± 0.19 | 0.491 ± 0.12 | 1.13 ± 0.062 | 1.07 ± 0.18 | 1.04 ± 0.14 | 1.03 ± 0.082 | 0.619 ± 0.051 | 0.42 ± 0.087 | 0.265 ± 0.044 | 0.246 ± 0.031
MG63 BONE | 1.03 ± 0.021 | 0.98033 ± 0.00058 | 1.058 ± 0.0097 | 1.02 ± 0.038 | 1.081 ± 0.0029 | 1.121 ± 0.011 | 1.02 ± 0.019 | 0.8407 ± 0.0078 | 1.04 ± 0.071 | 1.03 ± 0.027 | 1.06 ± 0.067 | 1.03 ± 0.052 | 0.582 ± 0.026 | 0.45 ± 0.024 | 0.17 ± 0.014 | 0.143 ± 0.011
CAL51 BREAST | 0.956 ± 0.013 | 0.951 ± 0.056 | 1.02 ± 0.011 | 0.906 ± 0.021 | 1.02 ± 0.024 | 0.97 ± 0.078 | 0.65 ± 0.022 | 0.403 ± 0.01 | 0.92 ± 0.025 | 0.958 ± 0.035 | 0.902 ± 0.086 | 0.894 ± 0.056 | 0.453 ± 0.032 | 0.279 ± 0.018 | 0.097 ± 0.005 | 0.0853 ± 0.0042
MDAMB468 BREAST | 0.891 ± 0.052 | 0.951 ± 0.03 | 1 ± 0.044 | 0.978 ± 0.023 | 1.12 ± 0.061 | 1.133 ± 0.007 | 0.818 ± 0.036 | 0.469 ± 0.007 | 1.08 ± 0.038 | 1.11 ± 0.015 | 1.07 ± 0.06 | 1.13 ± 0.018 | 1.06 ± 0.093 | 0.885 ± 0.05 | 0.366 ± 0.03 | 0.247 ± 0.013
22RV1 PROSTATE | 0.946 ± 0.09 | 1.02 ± 0.026 | 0.987 ± 0.054 | 0.994 ± 0.034 | 1.09 ± 0.046 | 1.03 ± 0.058 | 1.03 ± 0.051 | 0.726 ± 0.071 | 1.04 ± 0.047 | 1.02 ± 0.085 | 0.992 ± 0.097 | 0.949 ± 0.096 | 0.448 ± 0.025 | 0.339 ± 0.065 | 0.126 ± 0.017 | 0.119 ± 0.018

From the supplement of paper PMC6045584
